The values that follow come from patent US9205113B2, “Synthetic triterpenoids and methods for modulating stem/progenitor cell gene expression” (Trustees of Dartmouth College, priority 2012, dated 2015).

In one assay the test system is newborn mouse calvaria. The assay can be described thus: histologic analysis of calvarial organ cultures (H&E, toluidine blue): chondrogenesis. The format is cell-based. The settings on record: 200 nM, 7 days; for induction of chondrogenesis in newborn mouse calvaria (histology): H&E or toluidine blue sections; for formation of proteoglycans such as aggrecan (metachromatic toluidine blue staining): calvarial sections. Here is the method: (§1) Calvarial Organ Cultures. Details have been published previously (Garrett, et al. (2003) J. Clin. Invest. 111:1771-82). Calvaria were cultured in BGJ medium supplemented with 1 mg/mL of bovine serum albumin (Cohn fraction V), 100 U/ml each of penicillin/streptomycin, and 0.292 mg/mL of glutamine. On Day 1, the calvaria were treated with synthetic oleanane triterpenoids. On Day 4, the medium was replaced with fresh medium, again containing synthetic oleanane triterpenoids. On Day 7, calvaria were collected, either stored at −80° C. for further RNA analysis or fixed in 10% buffered formalin for 24 hours and transferred to 80% ethanol for histologic analysis.
(§2) Histologic Analysis of Calvaria. After fixation for hours, calvaria were decalcified in EDTA, embedded in paraffin and sectioned at 4 μm. Sections were stained either with modified hematoxylin and eosin (H&E) or with toluidine blue (1% in 70% ethanol for 20 minutes, followed by destaining in 70%, 90% and 100% ethanol for 15 seconds), placed in xylene twice, and then mounted. Procedures for immunofluorescence staining have been described (Medici, et al. (2010) Nat. Med. 74:537-45). Primary antibodies against collagen type II (AB746P, Millipore), were used at 1:100 dilution; ALEXFLUOR secondary antibodies (Invitrogen) at 1:200 dilution. For nuclear staining, To-PRO-3 Iodide (T3605, Invitrogen) was used.
For the results described here, more than 300 individual calvarial organ cultures were performed. […] No new cartilage was seen on control sections stained with either H&E or toluidine blue. […] With toluidine blue, bone stained orthochromatically (blue).
With respect to dose-response to either synthetic oleanane, 200 nM appeared to be optimal. Treatment with 50 nM triterpenoid yielded only marginal induction of chondrogenesis, while treatment with 500 nM synthetic oleanane gave somewhat variable results. Treatment with […] triterpenoid was invariably toxic to the organ cultures.

The next assay has as its system aggrecan. Kind of assay: Western blot in bone marrow stem cell cultures: aggrecan. In kind it is cell-based. The settings on record: 100 nM for 7 days, human BMSC cultures, not detectable in control. On the procedure:
(§3) Bone Marrow-Derived Stem Cell Culture and Immunoblotting. Human bone marrow-derived stromal cells, which contain a population of responsive mesenchymal stem cells (ScienCell Research Laboratories), were grown in mesenchymal stem cell medium (ScienCell Research Laboratories). Cells were serum-starved 24 hours prior to all experimental conditions. Immunoblotting was performed using the following antibodies at concentrations (and using protocols) recommended by the respective manufacturers: SOX9 (sc-20095, Santa Cruz Biotechnology), collagen IIα1 (sc-7764 and sc-28887, Santa Cruz), aggrecan (ab3778 and ab36861, Abcam), BMP-2 (ab14933, Abcam), phospho-Smad5 (9516, Cell Signaling Technology), Smad5 (9517, Cell Signaling Technology), β-actin (A1978, SigmaeAldrich). HRP-conjugated IgG TRUEBLOT reagents (18-8814, eBioscience) were used at a dilution of 1:1000.
(§4) Further studies on mechanism were pursued in human bone marrow stem cell (BMSC) cultures. […] BMP-2 is known to induce chondrogenic lineage development of human mesenchymal stem cells in culture (Schmitt, et al. (2003) Differentiation 71:567-77).
In general terms: Immunoblotting shows a protein as a band on a membrane.

Assay [1] relates to SOX9. Kind of assay: Western blot in bone marrow stem cell cultures: SOX9. The format is cell-based. The settings on record: 100 nM for 7 days, human BMSC cultures, not detectable in control. On the procedure:
as §3, §4

Assay [2] deals with type II collagen (collagen IIα1). Kind of assay: immunohistochemistry of calvarial organ cultures: type II collagen. The format is cell-based, mouse. The conditions noted are these: 200 nM, calvarial sections, not seen in control sections. On the procedure:
as §1
as §2, with “used. […]” for “used.”

For the next assay, the system named is collagen type 2. The assay can be described thus: Western blot in bone marrow stem cell cultures: collagen type 2. The format is cell-based. The settings on record: 100 nM for 7 days, human BMSC cultures, not detectable in control. Here is the method: as §3, §4
A further assay relates to COL2A1. Kind of assay: quantitative RT-PCR of calvarial organ cultures: COL2A1. In kind it is cell-based. The conditions noted are these: 7 days of culture, newborn mouse calvaria. Here is the method:
as §1
(§5) Quantitative RT-PCR (gRT-PCR). Detailed procedures for qRT-PCR are known in the art (Lee, et al. (2006) Biochem. Pharmacol. 72:332-43). In brief, 30 ng of RNA was reverse transcribed to cDNA using the random primers and Applied Biosystems' High Capacity cDNA Archive Kit in a 96-well format MASTERCYCLER Gradient from EPPENDORF. Subsequently, cDNA was amplified with ASSAYS-ON-DEMAND Products containing two gene specific primers and one TAQMAN MGB probe (6-FAM dye-labeled) using the TAQMAN Universal PCR Master Mix in an ABI PRISM 7000 Sequencing Detector (Applied Biosystems). All labeled primers were obtained from Applied Biosystems.
(§6) In addition to the histologic analysis of the calvarial cultures, mechanistic aspects of the action of both CDDO-EA and CDDO-Im were investigated in the calvaria. After 7 days of culture, RNA was isolated from the calvaria and quantitative RT-PCR analysis was performed for more than 15 different markers, including: SOX9, collagen IIα1, all three isoforms of TGF-β, BMPs 2 and 4, BMP receptor II, Smads 3, 4, 6, and 7, tissue inhibitors of metalloproteinases (TIMP-1 and TIMP-2), and matrix metalloproteinase-9 (MMP-9). […] The 50 nM dose was generally ineffective. In contrast, both triterpenoids were strong inhibitors of the expression of MMP-9; CDDO-EA (200 nM) caused almost 80% inhibition of the expression of this metalloproteinase, which is known to be involved in the degradation of cartilage (Shinoda, et al. (2008) J. Biol. Chem. 283:24632-9).

Assay [3] concerns SOX9. The assay can be described thus: quantitative RT-PCR of calvarial organ cultures: SOX9. In kind it is cell-based. The conditions noted are these: 7 days of culture, newborn mouse calvaria. Here is the method: as §1, §5, §6

In the case of `CC1(C)CC[C@]2(C(=O)n3ccnc3)CC[C@]3(C)[C@H](C(=O)C=C4[C@@]5(C)C=C(C#N)C(=O)C(C)(C)[C@@H]5CC[C@]43C)[C@@H]2C1` [CDDO-Im, 1-(2-cyano-3,12-dioxooleana-1,9(11)-dien-28-oyl) imidazole], the “induction of chondrogenesis in newborn mouse calvaria (histology)” value in the assay with newborn mouse calvaria was “marked ability to induce chondrogenesis”. Further, in the assay with newborn mouse calvaria, the “formation of proteoglycans such as aggrecan (metachromatic toluidine blue staining)” value is given as “induce the formation of proteoglycans”. Besides, in the assay with aggrecan, the “expression of chondrocyte marker aggrecan (Western blot)” value was “induced expression”. Moreover, the “expression of chondrocyte marker SOX9 (Western blot)” value with SOX9 [1] is “induced expression”. Also, the “formation of type II collagen (collagen IIα1), immunohistochemistry” value in assay [2] was “induced the formation of type II collagen”. Moreover, the “expression of chondrocyte marker collagen type 2 (Western blot)” value with collagen type 2 is “induced expression”. Also, the figures for the “COL2A1 expression (quantitative RT-PCR)” value in the assay with COL2A1 (50 nM), in the assay on COL2A1 (200 nM) and in the assay with COL2A1 (500 nM) were 1.45 ± 0.09, 1.32 ± 0.23 and 1.72 ± 0.39, respectively. Further, the “SOX9 expression (quantitative RT-PCR)” value stood at 1.26 ± 0.08 with SOX9 [3] (50 nM), 1.33 ± 0.05 in the assay with SOX9 [3] (200 nM) and 1.83 ± 0.13 with SOX9 [3] (500 nM).
`CCNC(=O)[C@]12CCC(C)(C)C[C@H]1[C@H]1C(=O)C=C3[C@@]4(C)C=C(C#N)C(=O)C(C)(C)[C@@H]4CC[C@@]3(C)[C@]1(C)CC2` [CDDO-EA]: in the assay on newborn mouse calvaria, the “induction of chondrogenesis in newborn mouse calvaria (histology)” value is “marked ability to induce chondrogenesis”. Also, the “formation of proteoglycans such as aggrecan (metachromatic toluidine blue staining)” value in the assay on newborn mouse calvaria was “induce the formation of proteoglycans”. The “expression of chondrocyte marker aggrecan (Western blot)” value in the assay with aggrecan was “induced expression”. The “expression of chondrocyte marker SOX9 (Western blot)” value in the assay with SOX9 [1] is reported as “induced expression”. Besides, in assay [2], the “formation of type II collagen (collagen IIα1), immunohistochemistry” value is reported as “induced the formation of type II collagen”. In addition, in the assay on collagen type 2, the “expression of chondrocyte marker collagen type 2 (Western blot)” value is given as “induced expression”. The “COL2A1 expression (quantitative RT-PCR)” value in the assay on COL2A1 (50 nM) was found to be 4.12 ± 1.78; in the assay with COL2A1 (200 nM) it was 5.45 ± 1.13; in the assay with COL2A1 (500 nM), 3.18 ± 0.71. The “SOX9 expression (quantitative RT-PCR)” value came to 1.64 ± 0.17 in the assay with SOX9 [3] (50 nM), 2.62 ± 0.33 in the assay with SOX9 [3] (200 nM) and 3.12 ± 0.38 in the assay on SOX9 [3] (500 nM).
